Data: patent US9005939B2, “Protoilludene synthase” (priority 2010, dated 2015)

How the values were obtained:
[1] = biological target: T1, Pro1 (A. gallica protoilludene synthase) expressed in Escherichia coli (Armillaria gallica, UniProt P0DL13); assay: Sesquiterpene synthase activity of crude soluble protein extract of E. coli expressing Pro1 (radio-TLC); assay type: biochemical; settings: same Pro1 lysate incubated with diterpene synthase substrate
T1 construct: A. gallica protoilludene synthase (clone Pro1); made in house; host or cells: E. coli BL21 (DE3) CodonPlus, vector pDEST14; crude soluble lysate
Description: Escherichia coli protein extracts were prepared by resolving the cell pellet from cultivation in the described extraction puffer and cells were lysed under constant cooling by two rounds of Microfluidizer treatment.
Part of the organic extract was then spotted onto silica-gel TLC plates and separated using 9:1 cyclohexane:ethyl acetate as the solvent, prior to analysis in a radio-TLC reader (Raytest, Straubenhardt). For the determination of KM values the reactions were stopped by quenching with 100 mM EDTA (final concentration) followed by extraction with n-pentane, purification by silica gel column chromatography and quantitation by liquid scintillation counting. All kinetic activity assays were performed in triplicate. Mass spectrometry analysis of solvent extracts was performed on a QP2010S quadrupole mass spectrometer (Shimadzu) equipped with an Rxi™-5 ms (0.25 mm ID, 30 m length) column (Restek) using the following temperature program: 80° C. for 20 min, followed by heating the column at an rate of 15° C./min to 300° C. with a final constant temperature of 300° C. for 4 min. Fragmentation was achieved by electric ionization at […].
Where cDNA sequencing identified potential terpene synthase clones, the corresponding pENTRY vectors were used in LR recombination reactions involving the pDEST14 destination vector. […]

[2] = biological target: A. gallica protoilludene synthase (Armillaria gallica, UniProt P0DL13); assay type: biochemical

CC(C)=CCC/C(C)=C/CC/C(C)=C/CC/C(C)=C/COP(=O)(O)OP(=O)(O)O [gernaylgeranyl diphosphate, geranylgeranyl diphosphate]
substrate converted into less polar product [1]: < 1%

CCO [ethanol]
effect on enzyme activity [2]: dramatic reduction in activity

[Cl][Mn][Cl] [MnCl2]
fall of protoilludene synthase activity ([2]; 5 mM MgCl2 replaced with MnCl2, relative to highest activity with MgCl2): 75%
